Measured values reported in publication PMC9492458, “Development and structure–activity relationships of tanshinones as selective 11β-hydroxysteroid dehydrogenase 1 inhibitors” (Natural Products and Bioprospecting, 2022).

Assays:
[1] = target: mouse 11β-HSD1 (Mus musculus, UniProt P50172); experiment: scintillation proximity assay (SPA), microsomes of HEK-293 cells transfected with mouse 11β-HSD1; details: for Mouse SI (selectivity index): SI = IC50(HSD2)/IC50(HSD1); for inhibition at 1 µM: read-out: Inhibitory ratio m-HSD1, at 1.0 μM, averages of three determinations
Sequence of mouse 11β-HSD1 (P50172 whole entry): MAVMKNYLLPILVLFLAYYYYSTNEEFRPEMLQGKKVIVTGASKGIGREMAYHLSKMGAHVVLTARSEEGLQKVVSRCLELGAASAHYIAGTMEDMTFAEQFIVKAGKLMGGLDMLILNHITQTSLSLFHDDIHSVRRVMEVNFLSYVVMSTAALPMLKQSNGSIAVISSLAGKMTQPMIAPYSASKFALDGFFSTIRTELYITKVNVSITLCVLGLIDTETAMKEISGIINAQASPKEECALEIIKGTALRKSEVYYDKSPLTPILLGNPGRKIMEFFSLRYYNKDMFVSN
Description: (§1) With diverse tanshinones in hand, inhibition of human and mouse 11β-HSD1 enzymatic potency was measured by scintillation proximity assay (SPA) using microsomes containing 11β-HSD1 [46, 47]. Results are reported as the average of two or three independent experiments at each concentration.
(§2) The SPA was used to screen for inhibitors of 11β-HSDs [48], with the microsome fractions prepared from the HEK-293 cells stably transfected with either human or mouse 11β-HSD1 or 11β-HSD2 as the enzyme source. […] Reactions were initiated by the addition of 11β-HSD1 or 11β-HSD2, enzyme. […] The plates were incubated under plastic film on an orbital shaker for 120 min at room temperature before counting. The amount of [^3H]-cortisol generated in 11β-HSD1 enzyme reaction or remaining from the 11β-HSD2 enzyme reaction was captured by the beads and determined in a microplate liquid scintillation counter. The % inhibition was calculated relative to a non-inhibited control. Data were obtained from two or three independent experiments. IC50 values were calculated from concentration–response curves by a non-linear regression analysis using Prism Version 6.

[2] = target: T1, mouse 11β-HSD2 (Mus musculus, UniProt P51661); experiment: scintillation proximity assay (SPA), microsomes of HEK-293 cells transfected with mouse 11β-HSD2
T1 sequence (P51661 1-386): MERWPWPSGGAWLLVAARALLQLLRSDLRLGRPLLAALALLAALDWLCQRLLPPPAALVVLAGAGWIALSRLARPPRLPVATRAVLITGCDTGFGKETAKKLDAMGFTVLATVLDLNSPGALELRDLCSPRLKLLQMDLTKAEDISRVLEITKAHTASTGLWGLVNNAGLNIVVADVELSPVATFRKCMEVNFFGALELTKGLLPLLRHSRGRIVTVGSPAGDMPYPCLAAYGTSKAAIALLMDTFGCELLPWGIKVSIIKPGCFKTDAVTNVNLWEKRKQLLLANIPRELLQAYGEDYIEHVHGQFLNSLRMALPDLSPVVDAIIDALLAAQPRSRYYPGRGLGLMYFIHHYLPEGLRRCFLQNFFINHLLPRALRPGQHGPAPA
Description: as §1, §2

[3] = target: human 11β-HSD1 (Homo sapiens, UniProt P28845); experiment: scintillation proximity assay (SPA), microsomes of HEK-293 cells transfected with human 11β-HSD1; details: for inhibition at 1 µM: read-out: Inhibitory ratio h-HSD1, at 1.0 μM, averages of three determinations; for Human SI (selectivity index): Table 3, SI = IC50(HSD2)/IC50(HSD1)
Sequence of human 11β-HSD1 (P28845 whole entry): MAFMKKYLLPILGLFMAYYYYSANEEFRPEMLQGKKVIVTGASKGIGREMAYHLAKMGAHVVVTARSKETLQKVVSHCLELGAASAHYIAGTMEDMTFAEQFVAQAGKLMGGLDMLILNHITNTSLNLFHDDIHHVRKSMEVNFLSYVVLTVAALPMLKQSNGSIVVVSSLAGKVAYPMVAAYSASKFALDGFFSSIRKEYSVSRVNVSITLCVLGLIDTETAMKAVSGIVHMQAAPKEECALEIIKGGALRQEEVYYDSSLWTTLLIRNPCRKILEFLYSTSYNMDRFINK
Description: as §1, §2

[4] = target: T2, human 11β-HSD2 (Homo sapiens, UniProt P80365); experiment: scintillation proximity assay (SPA), microsomes of HEK-293 cells transfected with human 11β-HSD2
T2 sequence (P80365 1-405): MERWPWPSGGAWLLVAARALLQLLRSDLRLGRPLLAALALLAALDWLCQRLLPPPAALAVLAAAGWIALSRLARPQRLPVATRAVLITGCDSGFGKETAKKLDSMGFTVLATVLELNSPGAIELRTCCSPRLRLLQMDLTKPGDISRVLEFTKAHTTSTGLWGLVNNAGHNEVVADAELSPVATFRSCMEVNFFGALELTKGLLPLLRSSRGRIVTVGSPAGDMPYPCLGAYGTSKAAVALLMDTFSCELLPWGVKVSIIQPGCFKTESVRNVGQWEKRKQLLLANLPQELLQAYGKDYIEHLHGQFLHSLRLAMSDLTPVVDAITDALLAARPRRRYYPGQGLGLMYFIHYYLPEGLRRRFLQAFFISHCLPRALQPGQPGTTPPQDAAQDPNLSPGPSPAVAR
Description: as §1, §2

[5] = target: T3, 11β-HSD1 in 3T3-L1 adipocytes (Mus musculus, UniProt P50172); experiment: 11β-HSD1 activity assay in 3T3-L1 adipocytes; assay type: cell-based
T3 construct: endogenous in cells; host or cells: 3T3-L1 adipocytes
T3 sequence (P50172 whole entry): as the sequence (P50172 whole entry) above
Description: 11β-HSD1 enzyme inhibition in adipose tissue is believed to be important for achieving efficacy in vivo [11, 12]. Derivatives with potent enzymatic potency and excellent selectivity profiles (13, 14, 17, 28a, 28b and 30) were also evaluated their 11β-HSD1 inhibition in 3T3-L1 adipocyte.
The reductase activity of 11β-HSD1 in intact 3T3-L1 adipocytes was determined by measuring the rate of conversion of cortisone to cortisol. To explore the effect of compounds on 11β-HSD1 reductase activity, 3T3-L1 adipocytes were incubated for 1 h at 37 °C in serum-free DMEM containing 6.25 nmol/L [1,2-(N)^3H]-cortisone and different concentrations of compounds, according to experimental design. 0.1% DMSO was set as the vehicle control and MK544 was set as the positive control. At the end of the incubation, 80 μL of medium was pipetted into a transparent bottom 96-well plate, and 35 μL of SuperBlock Blocking Buffer containing 10 g/L of protein A-coated yttrium silicate beads and 3 mg/L of anti-cortisol antibodies was added. The mixtures were shaken in the dark for 2 h and then used for liquid scintillation readings. The inhibition effect was calculated by the following equation: Inhibition%=Data(compound)-Data(DMSO Vehicle)/Data(MK54410μM)-Data(DMSO Vehicle)×100%.

| IC50 [1] [µM] | Mouse SI (selectivity index) ([1]; Table 3) | inhibition at 1 µM [1] [%] | IC50 [2] [µM] | inhibition at 1 µM [3] [%] | IC50 [3] [µM] | IC50 [4] [µM] | Human SI (selectivity index) [3] | IC50 ([5]; 1 h incubation, averages of three determinations, read-out: IC50, cellular assay on 3T3-L1 adipocyte against 11β-HSD1) [µM] | Max effect ([5]; inhibition relative to MK544 10 μM) [%] | SMILES | Mouse SI (selectivity index) ([1]; Table 1) |
| --- | --- | --- | --- | --- | --- | --- | --- | --- | --- | --- | --- |
| 0.138 ± 0.0108 | > 724.1 | 89 ± 3.5 | > 100 | 31.1 ± 0.2 | – | – | – | – | – | Cc1coc2c1C(=O)C(=O)c1c-2ccc2c1[C@H](O)[C@@H](O)CC2(C)C (racemic) [Compound 18a] | – |
| – | – | 8.4 | – | 14 ± 1.3 | – | – | – | – | – | Cc1coc2c1c(=O)oc1c3ccccc3ccc21 [Compound 9] | – |
| 0.0665 ± 0.0056 | > 150.3 | 89.9 ± 0.9 | > 10 | 87.6 ± 2.2 | 0.121 | > 10 | > 82.5 | – | – | Cc1coc2c1C(=O)C(=O)c1ccccc1-2 [Compound 10] | – |
| – | – | 33 ± 2.3 | – | 9.9 ± 1.1 | – | – | – | – | – | Cc1coc2c1C(=O)C(=O)C=C2 [Compound 11] | – |
| – | – | 12.4 ± 1.4 | – | 10 ± 2.3 | – | – | – | – | – | Cc1coc2ccc(O)cc12 [Compound 12] | – |
| 0.0729 ± 0.0093 | > 1371.7 | 85.3 ± 0.2 | > 100 | 40.6 ± 1.5 | – | – | – | – | – | Cc1coc2c1C(=O)C(=O)c1c-2ccc2c1CCC(O)C2(C)C (stereo not drawn) [Compound 15] | – |
| 0.0101 ± 0.0008 | > 9900.9 | 89.3 ± 1.5 | > 100 | 50.3 ± 2.7 | 0.89 ± 0.1 | 7.3 ± 2.2 | 8.2 | – | – | CC(=O)OC1CCc2c(ccc3c2C(=O)C(=O)c2c(C)coc2-3)C1(C)C (stereo not drawn) [Compound 16] | – |
| – | – | 49.4 ± 1.6 | – | 43.2 ± 1.7 | – | – | – | – | – | Cc1coc2c1C(=O)C(=O)c1c-2ccc2c1C(=O)C(O)CC2(C)C (stereo not drawn) [Compound 18b] | – |
| 0.0484 ± 0.0066 | > 206.6 | 86.7 ± 2.1 | > 10 | 63.9 ± 2.7 | 0.32 | 2.7 ± 0.5 | 8.3 | – | – | Cc1coc2c1C(=O)C(=O)c1c-2ccc2c1C[C@@H](O)CC2(C)C [Compound 19] | – |
| 0.0966 ± 0.0165 | > 103.6 | 81.8 ± 1.5 | > 10 | 38.5 ± 2.2 | – | – | – | – | – | Cc1coc2c1C(=O)C(=O)c1c-2ccc2c1C(=O)C(O)=CC2(C)C [Compound 20] | – |
| – | – | 28.6 ± 0.3 | – | 5.1 ± 1.8 | – | – | – | – | – | CC(=O)Oc1c2c(c3ccc4c(c3c1OC(C)=O)CCCC4(C)C)OC[C@@H]2C [Compound 21] | – |
| – | – | 56 ± 2.2 | – | 33.6 ± 0.8 | – | – | – | – | – | Cc1c[nH]c2c1C(=O)C(=O)c1c-2ccc2c1CCCC2(C)C [Compound 24] | – |
| 0.095 ± 0.0178 | > 105.3 | 85.1 ± 0.6 | > 10 | 35.5 ± 2.8 | – | – | – | – | – | C[C@@H](CO)C1=C(N)c2ccc3c(c2C(=O)C1=O)CCCC3(C)C [Compound 25] | – |
| – | – | 19.2 ± 5.3 | – | 12.8 ± 0.8 | – | – | – | – | – | Cc1coc2c3ccc4c(c3c3[nH]c(-c5ccc(O)cc5)nc3c12)CCCC4(C)C [Compound 26] | – |
| – | – | 25.9 ± 0.3 | – | 33.9 ± 1.8 | – | – | – | – | – | Cc1c(-c2ccccc2)oc2c1C(=O)C(=O)c1c-2ccc2c1CCCC2(C)C [Compound 27a] | – |
| – | – | 5.6 ± 0.5 | – | 3.8 ± 1.5 | – | – | – | – | – | Cc1c(-c2ccc(F)cc2)oc2c1C(=O)C(=O)c1c-2ccc2c1CCCC2(C)C [Compound 27b] | – |
| 0.0069 ± 0.0012 | > 1451.4 | 70.6 ± 0.5 | > 10 | 82.5 ± 0.9 | 0.126 ± 0.0005 | 6.1 ± 0.7 | 48.4 | – | – | Cc1c(-c2ccncc2)oc2c1C(=O)C(=O)c1c-2ccc2c1CCCC2(C)C [Compound 27c] | – |
| – | – | 37.4 ± 2.8 | – | 14.5 ± 1.4 | – | – | – | – | – | Cc1c(-c2ccsc2)oc2c1C(=O)C(=O)c1c-2ccc2c1CCCC2(C)C [Compound 27d] | – |
| – | – | 42.9 ± 3.7 | – | 15.1 ± 0.8 | – | – | – | – | – | Cc1c(-c2ccnc3ccccc23)oc2c1C(=O)C(=O)c1c-2ccc2c1CCCC2(C)C [Compound 27e] | – |
| 0.0171 ± 0.0009 | > 5813.9 | 96.6 ± 0.6 | > 100 | 92.1 ± 2.4 | 0.038 ± 0.0004 | 5.6 ± 0.9 | 147.9 | – | – | Cc1c(CN(C)C)oc2c1C(=O)C(=O)c1c-2ccc2c1CCCC2(C)C [Compound 29a] | – |
| 0.0655 ± 0.0037 | > 1526.7 | 89.5 | > 100 | 87.8 ± 0.8 | 0.0426 ± 0.0044 | 6.5 ± 3.6 | 151.9 | – | – | Cc1c(CN2CCCCC2)oc2c1C(=O)C(=O)c1c-2ccc2c1CCCC2(C)C [Compound 29b] | – |
| – | – | 6.7 ± 4.3 | – | 45.2 ± 0.7 | – | – | – | – | – | Cc1c(CN2CCOCC2)oc2c1C(=O)C(=O)c1c-2ccc2c1CCCC2(C)C [Compound 29c] | – |
| 0.272 ± 0.0602 | > 367.2 | 55.6 ± 1.8 | > 100 | 67.3 ± 3.1 | 0.183 ± 0.0325 | 2.5 ± 0.6 | 13.6 | – | – | Cc1c(CN2CCN(C)CC2)oc2c1C(=O)C(=O)c1c-2ccc2c1CCCC2(C)C [Compound 29d] | – |
| 0.0566 ± 0.0007 | > 176.4 | 88.9 ± 3.5 | > 10 | 32.6 ± 5.8 | > 1 | – | – | – | – | CC1(C)CCCc2c1ccc1c2C(=O)C(=O)c2c(CNc3ccccc3)coc2-1 [Compound 31a] | – |
| – | – | 37 ± 3.2 | – | 16.9 ± 3.7 | – | – | – | – | – | CC1(C)CCCc2c1ccc1c2C(=O)C(=O)c2c(CN3CCOCC3)coc2-1 [Compound 31b] | – |
| 0.328 ± 0.0202 | > 30.5 | 70.1 ± 1.1 | > 10 | 21.4 ± 1.8 | > 1 | – | – | – | – | CC1(C)CCCc2c1ccc1c2C(=O)C(=O)c2c-1oc(Cl)c2CO [Compound 32] | – |
| 0.0393 ± 0.0076 | > 2551.0 | 87.3 ± 1.3 | > 100 | 70 ± 0.4 | 0.21 | 1.2 ± 0.5 | 5.8 | – | – | Cc1c(Br)oc2c1C(=O)C(=O)c1c-2ccc2c1C=CCC2(C)C [Compound 33] | – |
| 0.0672 ± 0.0064 | > 1488.1 | 90.8 ± 1.7 | > 100 | 53.9 ± 1.6 | 0.85 ± 0.2 | 1.9 ± 0.3 | 2.2 | – | – | CC1(C)C(=O)C=Cc2c1ccc1c2C(=O)C(=O)c2c(CO)coc2-1 [Compound 34] | – |
| 0.0219 ± 0.0079 | > 4575.5 | 83.6 ± 1.9 | > 100 | 48.9 ± 1.9 | – | – | – | – | – | CC(=O)OC1CCc2c(ccc3c2C(=O)C(=O)c2c(CO)coc2-3)C1(C)C (stereo not drawn) [Compound 35] | – |
| – | – | – | – | – | – | – | – | 0.4 ± 0.1 | 98.0 ± 0.7 | C1CCc2nnc(C34CC5CC(CC(C5)C3)C4)n2CC1 [MK544, reference compound] | – |

| SMILES | IC50 [1] [µM] | Mouse SI (selectivity index) ([1]; Table 3) | inhibition at 1 µM [1] [%] | IC50 [2] [µM] | inhibition at 1 µM [3] [%] | IC50 [3] [µM] | IC50 [4] [µM] | Human SI (selectivity index) [3] | IC50 ([5]; 1 h incubation, averages of three determinations, read-out: IC50, cellular assay on 3T3-L1 adipocyte against 11β-HSD1) [µM] | Max effect ([5]; inhibition relative to MK544 10 μM) [%] | Mouse SI (selectivity index) ([1]; Table 1) |
| --- | --- | --- | --- | --- | --- | --- | --- | --- | --- | --- | --- |
| C[C@H]1COC2=C1C(=O)C(=O)c1c2ccc2c1CCCC2(C)C [Compound 2, cryptotanshinone] | 0.0418 ± 0.0087 | – | 89.9 ± 3.7 | > 1000 | 91.3 ± 0.1 | 0.0731 ± 0.0313 | 12.1 | – | – | – | > 23,923 |
